The source made the active and inactive calls. No cut-off for these calls is given here.
Key:
[1] = Antiproliferative activity against ARID1A/1B proficient human OVISE cells after 7 days by Cell-Titer Glo assay; type: functional, cell-based; details: 168 h
[2] = test system: SK-HEP1; assay: Antitumor activity against human SK-HEP1 cells xenografted BALB/c nu mouse assessed as decrease in tumor volume at 100 mg/kg/day, po measured on the 18th day; type: functional, organism-based; details: time 18.0 day

SMILES	IC50 [1] [nM]	Activity [2]
COC(=O)c1ccc([C@H]2c3[nH]c4ccccc4c3C[C@H](C(=O)OC)N2C(=O)CCl)cc1	< 3	–
Cc1onc(C(=O)N2CCN(C(c3ccc(Cl)cc3)c3ccc(Cl)cc3)CC2)c1[N+](=O)[O-]	–	Active

From ChEMBL document CHEMBL5052855, “Method for predicting sensitivity of cancer cell to gpx4 inhibitor” (2021)
